Reference: paper PMC12332667, “Role of Structural Modifications in Peptidomimetic Compounds as Potential Antimicrobial Agents against Staphylococcus aureus and Streptococcus pyogenes: Balancing Bioavailability, Safety, and Antimicrobial Activity” (ACS Omega, 2025)
≈ marks a conversion by molar mass, not a printed value. Where “and” joins values, the source holds several entries; their conditions need not be identical. Equal values may be shown once. Each block holds one compound with its values, some of them ahead of it.

Experiments:
E. coli ATCC 25922 = test: MIC/MBC broth microdilution, E. coli; type: cell-based, Escherichia coli
Method in brief: (§1)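 BHI broth microdilution (NCCLS); ~10^5 CFU/mL; 37 °C, 18 h. MIC = lowest conc., no visible growth (≥90% vs untreated). MBC = ≤3 colonies, ≥99.9% kill. Water/DMSO/EtOH solvent controls; technical triplicate ×3 biological repeats.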

S. aureus ATCC 43300 = test: MIC/MBC broth microdilution, S. aureus; type: cell-based, Staphylococcus aureus; details: S. aureus
P. aeruginosa ATCC 10145 = test: MIC/MBC broth microdilution, P. aeruginosa; type: cell-based
Method in brief: as §1

P. vulgaris ATCC 6896 = test: MIC/MBC broth microdilution, P. vulgaris; type: cell-based, Proteus vulgaris
Method in brief: as §1

S. agalactiae ATCC 27956 = test: MIC/MBC broth microdilution, S. agalactiae; type: cell-based, Streptococcus agalactiae; details: S. agalactiae
Method in brief: as §1

[1] = tested on: K. pneumoniae ATCC 700603; test: MIC/MBC broth microdilution, K. pneumoniae; type: cell-based
Method in brief: as §1

E. faecalis c.i. = test: MIC/MBC broth microdilution, E. faecalis; type: cell-based, Enterococcus faecalis
Method in brief: as §1

[2] = tested on: immortalized human HaCaT keratinocytes; test: XTT cell proliferation assay, keratinocytes; type: cell-based; details: for effect on proliferation, in words: 48 and 72 h, 0.01–150 μg/mL
Method in brief: (§2)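 Proliferation was read as XTT absorbance at 490 nm after 4 h of reagent incubation, following 48 or 72 h of peptide exposure in serum-free HG-DMEM (37 °C, 5% CO2). The 72 h arm included a half-medium change with second peptide dose at 48 h. Significance by Mann–Whitney U, p ≤ 0.05.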

[3] = tested on: human dermal fibroblast cell line (46BR.1N); test: XTT cell proliferation assay, fibroblasts; type: cell-based; details: for effect on proliferation, in words: 48 and 72 h, 0.01–150 μg/mL
Method in brief: as §2

fibroblasts (46BR.1N) = test: LDH cytotoxicity test, fibroblasts; type: cell-based
Method in brief: (§3)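 Cytotoxicity as LDH release after 48 h serum-free treatment (50, 100, 150 μg/mL peptidomimetics) of 46BR.1N fibroblasts or HaCaT keratinocytes seeded at 5000 per well. Absorbance 450 nm; untreated set as 0% and Triton X-100 1% as maximal release; Mann–Whitney U test, p ≤ 0.05.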

S. pyogenes ATCC 19615 = test: MIC/MBC broth microdilution, S. pyogenes; type: cell-based, Streptococcus pyogenes; details: S. pyogenes
Method in brief: as §1

S. mutans c.i. = test: MIC/MBC broth microdilution, S. mutans; type: cell-based, Streptococcus mutans
Method in brief: as §1

[4] = Hydrophobicity by reverse-phase chromatography; type: physicochemical; details: acetonitrile content in the mobile phase at the retention time
Text: Reverse-phase chromatography was employed to assess the hydrophobicity characteristics of the peptidomimetics. Hydrophobicity was quantified by determining the acetonitrile content in the mobile phase at the retention time of a peptidyl derivative (Table S2). The least hydrophobic compound (40% acetonitrile) was A-198, which aligns with the calculations of hydrophobicity by SwissADME and pkCSM (Table ). Next in the hydrophobicity sequence were A-197, A-220, A-219, A-174, and A-221, eluting with 42.5-43.9% of acetonitrile. Then there were followed by […], and A-179, with the acetonitrile percentage of 44.8-49.8. The compounds A-176, A-20, A-152, A-134, and A-210 needed over 50% of acetonitrile to be eluted from the column.

[5] = tested on: immortalized human keratinocytes (HaCaT); test: LDH cytotoxicity test, keratinocytes; type: cell-based
Method in brief: as §3

S. schleiferi c.i. = test: MIC/MBC broth microdilution, S. schleiferi; type: cell-based, Staphylococcus schleiferi
Method in brief: as §1

S. cohnii c.i. = test: MIC/MBC broth microdilution, S. cohnii; type: cell-based, Staphylococcus cohnii
Method in brief: as §1

S. intemrdius c.i. = test: MIC/MBC broth microdilution, S. intermedius; type: cell-based, Staphylococcus intermedius
Method in brief: as §1

[6] = 48 h, 50, 100 and 150 μg/mL, vs 1% Triton X-100
[7] = A-196 0.01–10 μg/mL, A-219 above 0.1 μg/mL, A-213 lower concentrations

MIC (E. coli ATCC 25922; H2O): > 512 µg/mL
MIC (E. coli ATCC 25922; water additive DMSO): > 512 µg/mL
MIC (E. coli ATCC 25922; water additive EtOH): > 512 µg/mL
MIC (S. aureus ATCC 43300; H2O): > 512 µg/mL
MIC (S. aureus ATCC 43300; water additive DMSO): > 512 µg/mL
MIC (S. aureus ATCC 43300; water additive EtOH): > 512 µg/mL
MIC (P. aeruginosa ATCC 10145; H2O): > 512 µg/mL
MIC (P. aeruginosa ATCC 10145; water additive DMSO): > 512 µg/mL
MIC (P. aeruginosa ATCC 10145; water additive EtOH): > 512 µg/mL
MIC (P. vulgaris ATCC 6896; H2O): > 512 µg/mL
MIC (P. vulgaris ATCC 6896; water additive DMSO): > 512 µg/mL
MIC (P. vulgaris ATCC 6896; water additive EtOH): > 512 µg/mL
MIC (S. agalactiae ATCC 27956; H2O): > 512 µg/mL
MIC (S. agalactiae ATCC 27956; water additive DMSO): > 512 µg/mL
MIC (S. agalactiae ATCC 27956; water additive EtOH): > 512 µg/mL
MIC ([1]; H2O): > 512 µg/mL
MIC ([1]; water additive DMSO): > 512 µg/mL
MIC ([1]; water additive EtOH): > 512 µg/mL
MIC (E. faecalis c.i.; H2O): > 512 µg/mL
MIC (E. faecalis c.i.; water additive DMSO): > 512 µg/mL
MIC (E. faecalis c.i.; water additive EtOH): > 512 µg/mL
MIC (S. pyogenes ATCC 19615; H2O): > 512 µg/mL
MIC (S. pyogenes ATCC 19615; water additive DMSO): > 512 µg/mL
MIC (S. pyogenes ATCC 19615; water additive EtOH): > 512 µg/mL
% AcCN (acetonitrile required for elution from the column) [4]: 49.6% and 44.8–49.8%
MIC (S. schleiferi c.i.; H2O): 256 µg/mL (≈ 446 µM)
MIC (S. schleiferi c.i.; water additive DMSO): 256 µg/mL (≈ 446 µM)
MIC (S. schleiferi c.i.; water additive EtOH): 256 µg/mL (≈ 446 µM)
MIC (S. cohnii c.i.; H2O): > 512 µg/mL
MIC (S. cohnii c.i.; water additive DMSO): > 512 µg/mL
MIC (S. cohnii c.i.; water additive EtOH): > 512 µg/mL
Structure (SMILES): C=CCC(=O)NC[C@@H](NC(=O)[C@H](CC(C)C)NC(=O)[C@H](CCCNC(=N)N)NC(=O)OCc1ccccc1)C(C)C [Compound A-209]
effect on proliferation, in words ([2]; XTT): did not exert any negative impact
effect on proliferation, in words ([3]; XTT): did not exert any negative impact
cytotoxicity (LDH) (fibroblasts (46BR.1N); [6]): 10–15%
concentration at which cytotoxic effect starts (fibroblasts (46BR.1N); LDH, 48 h): > 150 µg/mL and 150 µg/mL
MBC (S. mutans c.i.; H2O): 256 µg/mL (≈ 446 µM)
MBC (S. mutans c.i.; water additive DMSO): 256 µg/mL (≈ 446 µM)
MBC (S. mutans c.i.; water additive EtOH): 256 µg/mL (≈ 446 µM)
cytotoxicity (LDH) [5, 6]: 10–15%
concentration at which cytotoxic effect starts ([5]; LDH, 48 h): > 150 µg/mL and 150 µg/mL
MBC (S. schleiferi c.i.; H2O): 512 µg/mL (≈ 892 µM)
MBC (S. schleiferi c.i.; water additive DMSO): 512 µg/mL (≈ 892 µM)
MBC (S. schleiferi c.i.; water additive EtOH): 512 µg/mL (≈ 892 µM)

Structure (SMILES): CC[C@@H](CNC(=O)/C=C/c1ccccc1)NC(=O)[C@H](CC(C)C)NC(=O)[C@H](CCCNC(=N)N)NC(=O)OCc1ccccc1 [Compound A-213]
MBC (E. coli ATCC 25922; H2O): 256 µg/mL (≈ 412 µM)
MIC (E. coli ATCC 25922; H2O): 256 µg/mL (≈ 412 µM)
MBC (E. coli ATCC 25922; water additive DMSO): 512 µg/mL (≈ 823 µM)
MIC (E. coli ATCC 25922; water additive DMSO): 256 µg/mL (≈ 412 µM)
MBC (E. coli ATCC 25922; water additive EtOH): 256 µg/mL (≈ 412 µM)
MIC (E. coli ATCC 25922; water additive EtOH): 256 µg/mL (≈ 412 µM)
MIC (P. aeruginosa ATCC 10145; H2O): 512 µg/mL (≈ 823 µM)
MBC (P. aeruginosa ATCC 10145; water additive DMSO): 512 µg/mL (≈ 823 µM)
MIC (P. aeruginosa ATCC 10145; water additive DMSO): 256 µg/mL (≈ 412 µM)
MBC (P. aeruginosa ATCC 10145; water additive EtOH): 256 µg/mL (≈ 412 µM)
MIC (P. aeruginosa ATCC 10145; water additive EtOH): 256 µg/mL (≈ 412 µM)
MIC (P. vulgaris ATCC 6896; H2O): > 512 µg/mL
MIC (P. vulgaris ATCC 6896; water additive DMSO): > 512 µg/mL
MIC (P. vulgaris ATCC 6896; water additive EtOH): > 512 µg/mL
MIC ([1]; H2O): > 512 µg/mL
MIC ([1]; water additive DMSO): 512 µg/mL (≈ 823 µM)
MIC ([1]; water additive EtOH): 512 µg/mL (≈ 823 µM)
MBC (E. faecalis c.i.; H2O): 256 µg/mL (≈ 412 µM)
MIC (E. faecalis c.i.; H2O): 256 µg/mL (≈ 412 µM)
MBC (E. faecalis c.i.; water additive DMSO): 256 µg/mL (≈ 412 µM)
MIC (E. faecalis c.i.; water additive DMSO): 256 µg/mL (≈ 412 µM)
MBC (E. faecalis c.i.; water additive EtOH): 256 µg/mL (≈ 412 µM)
MIC (E. faecalis c.i.; water additive EtOH): 256 µg/mL (≈ 412 µM)
pro-proliferative effect above control [2, 7]: 20–30%
proliferation relative to control at 150 μg/mL (highest tested concentration) ([2]; XTT, 150 μg/mL): around 25%
effect on proliferation, in words ([2]; XTT): pro-proliferating effect at lower concentrations followed by an antiproliferative effect at higher concentrations
pro-proliferative effect above control [3, 7]: 20–30%
proliferation relative to control at 150 μg/mL (highest tested concentration) ([3]; XTT, 150 μg/mL): around 25%
effect on proliferation, in words ([3]; XTT): pro-proliferating effect at lower concentrations followed by an antiproliferative effect at higher concentrations
cytotoxicity (LDH) at 150 μg/mL (fibroblasts (46BR.1N); 48 h, 150 μg/mL): ~10%
MIC (S. intemrdius c.i.; H2O): 32 µg/mL (≈ 51.5 µM)
MIC (S. intemrdius c.i.; water additive DMSO): 32 µg/mL (≈ 51.5 µM)
MIC (S. intemrdius c.i.; water additive EtOH): 32 µg/mL (≈ 51.5 µM)
MBC (S. mutans c.i.; H2O): 8 µg/mL (≈ 12.9 µM)
MIC (S. mutans c.i.; H2O): 4 µg/mL (≈ 6.43 µM)
MBC (S. mutans c.i.; water additive DMSO): 8 µg/mL (≈ 12.9 µM)
MIC (S. mutans c.i.; water additive DMSO): 4 µg/mL (≈ 6.43 µM)
MBC (S. mutans c.i.; water additive EtOH): 8 µg/mL (≈ 12.9 µM)
MIC (S. mutans c.i.; water additive EtOH): 4 µg/mL (≈ 6.43 µM)
% AcCN (acetonitrile required for elution from the column) [4]: 54.6%
cytotoxicity (LDH) at 150 μg/mL ([5]; 48 h, 150 μg/mL): ~10%
MBC (S. schleiferi c.i.; H2O): 32 µg/mL (≈ 51.5 µM)
MIC (S. schleiferi c.i.; H2O): 32 µg/mL (≈ 51.5 µM)
MBC (S. schleiferi c.i.; water additive DMSO): 32 µg/mL (≈ 51.5 µM)
MIC (S. schleiferi c.i.; water additive DMSO): 16 µg/mL (≈ 25.7 µM)
MBC (S. schleiferi c.i.; water additive EtOH): 32 µg/mL (≈ 51.5 µM)
MIC (S. schleiferi c.i.; water additive EtOH): 32 µg/mL (≈ 51.5 µM)
